Among the data in patent publication US12336982B2 (RODEO THERAPEUTICS CORPORATION, priority 2018, dated 2025) are IC50 values, retold here.

A value given as a limit tells only on which side of the number the result lay.

The test has as its target T1, recombinant 15-PGDH (Homo sapiens, UniProt P15428).
T1 sequence (P15428 1-266): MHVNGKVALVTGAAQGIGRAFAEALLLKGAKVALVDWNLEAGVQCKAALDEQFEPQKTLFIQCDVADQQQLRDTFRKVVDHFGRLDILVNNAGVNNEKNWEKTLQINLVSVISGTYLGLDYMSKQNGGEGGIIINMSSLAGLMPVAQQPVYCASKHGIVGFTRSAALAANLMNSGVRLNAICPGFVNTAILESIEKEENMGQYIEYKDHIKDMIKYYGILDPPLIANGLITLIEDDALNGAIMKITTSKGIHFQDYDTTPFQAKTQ
The test is classed as biochemical. The following applies: recombinant human 15-PGDH, in vitro; read-out: PDGH Assay-IC50.

From the text: The Recombinant 15-PGDH is human unless otherwise specified.

As for `CN1CCN(c2ncc(-c3cc(-c4ccccc4)c4c(N)c([S@+]([O-])C5CCC5)sc4n3)cn2)CC1` [Example 48], the IC50 (as a rule, the concentration at which inhibition is half-maximal) was < 2.5 nM. Take `Cn1cc(-c2cc(-c3ccc(OCCO)cc3)nc3sc([S+]([O-])C4CCC4)c(N)c23)cn1` (centres unmarked) [Example 413]: the IC50 is < 2.5 nM. To `COCCC[S+]([O-])c1sc2nc(-c3cnn(C)c3)cc(C3CC3)c2c1N` (centres unmarked) [Example 278] belongs < 2.5 nM; to `COCC[S@+]([O-])c1sc2nc(-c3cncnc3)cc(C3CC3)c2c1N` [Example 149], ≥ 10 nM. Turning to `Cn1cc2cc(-c3cc(C(F)(F)F)c4c(N)c([S+]([O-])C5CCC5)sc4n3)cnc2n1` (centres unmarked) [Example 421], the IC50 was < 2.5 nM. As for `Cn1cc(-c2cc(-c3cnc4nn(C)cc4c3)nc3sc([S+]([O-])C4CCC4)c(N)c23)cn1` (centres unmarked) [Example 279], the figure is 2.5 to 10 nM. Take `Cc1cc(-c2cncnc2)nc2sc([S+]([O-])C3CCC3)c(N)c12` (centres unmarked) [Example 164]: the IC50 was < 2.5 nM. In the case of `Cn1cc(-c2cc(-c3cncnc3)nc3sc([S+]([O-])C4CCC4)c(N)c23)cn1` (centres unmarked) [Example 282], the IC50 was < 2.5 nM. As for `COCCC[S@@+]([O-])c1sc2nc(-c3cnc4nn(C)cc4c3)cc(C3CCC3)c2c1N` [Example 261], the figure is < 2.5 nM; as for `Nc1c([S@@+]([O-])C2CCC2)sc2nc(-c3cnc4ncnn4c3)cc(-c3ccccc3)c12` [Example 403], ≥ 10 nM; as for `CN(CCO)c1ncc(-c2cc(C(F)(F)F)c3c(N)c([S+]([O-])C4CCC4)sc3n2)cn1` (centres unmarked) [Example 188], 2.5 to 10 nM. As for `Cn1nccc1-c1cc(-c2cnc3c(c2)ncn3C)nc2sc([S+]([O-])C3CCC3)c(N)c12` (centres unmarked) [Example 383], the figure is < 2.5 nM; as for `Cn1cc(-c2cc(-c3cccnc3)c3c(N)c([S+]([O-])C4CCC4)sc3n2)ccc1=O` (centres unmarked) [Example 89], < 2.5 nM. As for `COCC[S@+]([O-])c1sc2nc(-c3ccnnc3)cc(-c3ccccc3)c2c1N` [Example 212], the figure is ≥ 10 nM; as for `COCC[S@@+]([O-])c1sc2nc(-c3cnc4nn(C)nc4c3)cc(-c3ccnn3C)c2c1N` [Example 381], < 2.5 nM. With `COCCC[S+]([O-])c1sc2nc(-c3cnc4nn(CCO)cc4c3)cc(C3CCC3)c2c1N` (centres unmarked) [Example 270], the IC50 was < 2.5 nM. In the case of `Cn1nccc1-c1cc(-c2cnc(O)nc2)nc2sc([S@+]([O-])C3CCC3)c(N)c12` [Example 224], the IC50 was < 2.5 nM. Consider `COCC[S+]([O-])c1sc2nc(-c3cnc4nn(C)nc4c3)cc(C3CCC3)c2c1N` (centres unmarked) [Example 377], for which the IC50 is < 2.5 nM. On to `Nc1c([S@+]([O-])C2CCC2)sc2nc(-c3cnc(NCCO)nc3)cc(-c3ccccc3)c12` [Example 51], for which the IC50 was < 2.5 nM.

In the case of `COCC[S+]([O-])c1sc2nc(-c3cnc(NCCO)nc3)cc(C(F)(F)F)c2c1N` (centres unmarked) [Example 140], the IC50 lay within 2.5 to 10 nM. In the case of `Nc1c([S+]([O-])C2CCC2)sc2nc(-c3cnc(C(=O)NCCO)nc3)cc(-c3ccccc3)c12` (centres unmarked) [Example 129], the IC50 was < 2.5 nM.

On to `COCC[S+]([O-])c1sc2nc(-c3cncnc3)cc(-c3ccon3)c2c1N` (centres unmarked) [Example 352], for which the IC50 was < 2.5 nM. As to `Cn1nccc1-c1cc(-c2cnc(O)nc2)nc2sc([S@@+]([O-])C3CCC3)c(N)c12` [Example 225], the IC50 is ≥ 10 nM. With `COCC[S@@+]([O-])c1sc2nc(-c3cnc(NCCO)nc3)cc(C3CCC3)c2c1N` [Example 349], the concentration for half-maximal inhibition (IC50) is < 2.5 nM. To `COCCC[S+]([O-])c1sc2nc(-c3cnc(N)nc3)cc(C3CC3)c2c1N` (centres unmarked) [Example 107] belongs < 2.5 nM; to `COCC[S@+]([O-])c1sc2nc(-c3cncnc3)cc(-c3ncccn3)c2c1N` [Example 231], ≥ 10 nM. `COCC[S+]([O-])c1sc2nc(-c3cnc4c(c3)CN(C)C4=O)cc(C3CCC3)c2c1N` (centres unmarked) [Example 385]: the IC50 was < 2.5 nM.

On to `COC(=O)Nc1ncc(-c2cc(-c3cccnc3)c3c(N)c([S+]([O-])C4CCC4)sc3n2)cn1` (centres unmarked) [Example 117], for which the IC50 was in the range of 2.5 to 10 nM. For `COCC[S+]([O-])c1sc2nc(-c3cncnc3)cc(C34CC(C3)C4)c2c1N` (centres unmarked) [Example 256], the IC50 was < 2.5 nM.

For `COCC[S@@+]([O-])c1sc2nc(-c3cncnc3)cc(C3CC3)c2c1N` [Example 148], the half-maximal inhibitory concentration (IC50) is < 2.5 nM.

Consider `COCC[S@@+]([O-])c1sc2nc(-c3cnc4nncn4c3)cc(-c3ccccc3)c2c1N` [Example 359], for which the IC50 was < 2.5 nM. To `COCCC[S+]([O-])c1sc2nc(-c3cnc4nn(C)cc4c3)cc(C(F)(F)F)c2c1N` (centres unmarked) [Example 420] belongs < 2.5 nM; to `Nc1c([S+]([O-])C2CCC2)sc2nc(-c3cnc(N4CCOCC4)nc3)cc(-c3ccccc3)c12` (centres unmarked) [Example 194], 2.5 to 10 nM. As to `Nc1c([S@+]([O-])C2CCC2)sc2nc(-c3cnc(NCCO)nc3)cc(-c3ncccc3F)c12` [Example 181], the IC50 is < 2.5 nM. As for `COCC[S+]([O-])c1sc2nc(-c3cccnc3)nc(C3CC3)c2c1N` (centres unmarked) [Example 190], the figure is < 2.5 nM; as for `COC(=O)Nc1ccc(-c2cc(-c3ccnn3C)c3c(N)c([S+]([O-])C4CCC4)sc3n2)cn1` (centres unmarked) [Example 392], < 2.5 nM; as for `COCCC[S+]([O-])c1sc2nc(-c3cccnc3)nc(C3CC3)c2c1N` (centres unmarked) [Example 191], 2.5 to 10 nM. `Nc1c([S+]([O-])C2CCC2)sc2nc(-c3cnc(NCCO)nc3)cc(-c3cccc(C(F)(F)F)c3)c12` (centres unmarked) [Example 168]: the IC50 fell in the range of 2.5 to 10 nM. For `CNc1ncc(-c2cc(-c3ccnn3C)c3c(N)c([S@@+]([O-])CCOC)sc3n2)cn1` [Example 332], the IC50 was ≥ 10 nM. In the case of `COCC[S+]([O-])c1sc2nc(-c3cncnc3)cc(C3CC3)c2c1N` (centres unmarked) [Example 109], the IC50 was < 2.5 nM.

`Nc1c([S+]([O-])C2CCC2)sc2nc(-c3cnc(NCCO)nc3)nc(-c3ccccc3)c12` (centres unmarked) [Example 431]: the IC50 was in the range of 2.5 to 10 nM. Regarding `Nc1ncc(-c2cc(-c3ncccn3)c3c(N)c([S+]([O-])C4CCC4)sc3n2)cn1` (centres unmarked) [Example 328], the IC50 was < 2.5 nM. Turning to `Cn1cnc(-c2cc(-c3cncnc3)nc3sc([S@@+]([O-])C4CCC4)c(N)c23)c1` [Example 65], the IC50 was ≥ 10 nM. To `COCC[S@+]([O-])c1sc2nc(-c3cnc4ncn(C)c4c3)cc(-c3ccccc3)c2c1N` [Example 363] belongs ≥ 10 nM. For `COCC[S+]([O-])c1sc2nc(-c3cncnc3)cc(-c3ccnn3C)c2c1N` (centres unmarked) [Example 175], the IC50 was in the range of 2.5 to 10 nM. `CNc1ncc(-c2cc(-c3ccnn3C)c3c(N)c([S+]([O-])CCOC)sc3n2)cn1` (centres unmarked) [Example 330]: the IC50 was < 2.5 nM. Consider `CC1(O)CN(c2ncc(-c3cc(-c4ccccc4)c4c(N)c([S+]([O-])C5CCC5)sc4n3)cn2)C1` (centres unmarked) [Example 411], for which the IC50 lay within 2.5 to 10 nM.

Turning to `Nc1c([S+]([O-])C2CCC2)sc2nc(-c3cnc(NCCO)nc3)cc(C(F)(F)F)c12` (centres unmarked) [Example 138], the IC50 was 2.5 to 10 nM.

As to `COCCC[S+]([O-])c1sc2nc(-c3cnc(N(C)CCO)nc3)cc(C(F)(F)F)c2c1N` (centres unmarked) [Example 187], the IC50 lay within 2.5 to 10 nM.

Take `NCCOCCNc1ncc(-c2cc(-c3ccccc3)c3c(N)c([S+]([O-])C4CCC4)sc3n2)cn1` (centres unmarked) [Example 156]: the IC50 was < 2.5 nM. On to `COCC[S@@+]([O-])c1sc2nc(-c3cccnc3)cc(C(F)(F)F)c2c1N` [Example 80], for which the IC50 is < 2.5 nM. In the case of `Cc1cn(C)nc1-c1cc(-c2cnc(N)nc2)nc2sc([S+]([O-])C3CCC3)c(N)c12` (centres unmarked) [Example 357], the IC50 was < 2.5 nM.

With `Nc1c([S+]([O-])C2CCC2)sc2nc(-c3cncnc3)cc(-c3cc[nH]n3)c12` (centres unmarked) [Example 307], the IC50 was < 2.5 nM. With `COCC[S@@+]([O-])c1sc2nc(-c3cc(=O)n(C)cn3)cc(-c3ccccc3)c2c1N` [Example 220], the IC50 was < 2.5 nM. As for `Nc1c([S+]([O-])C2CCC2)sc2nc(-c3cncnc3)cc(-c3ccon3)c12` (centres unmarked) [Example 308], the figure is < 2.5 nM; as for `COCC[S+]([O-])c1sc2nc(-c3cncnc3)cc(-c3ccnc(C)c3)c2c1N` (centres unmarked) [Example 127], < 2.5 nM.

Take `Cn1nccc1-c1cc(-c2cnc3ncn(C)c3c2)nc2sc([S@+]([O-])C3CCC3)c(N)c12` [Example 371]: the IC50 was < 2.5 nM. To `Cn1cc(-c2cc(C(F)(F)F)c3c(N)c([S+]([O-])C4CCC4)sc3n2)cn1` (centres unmarked) [Example 428] belongs < 2.5 nM; to `COCCC[S+]([O-])c1sc2nc(-c3cnc4nn(C)cc4c3)cc(C3CCC3)c2c1N` (centres unmarked) [Example 260], < 2.5 nM; to `COCCC[S@@+]([O-])c1sc2nc(-c3cncnc3)cc(-c3ccncn3)c2c1N` [Example 238], < 2.5 nM. As to `Nc1c([S+]([O-])C2CCC2)sc2nc(-c3cncnc3)cc(-c3ccc(C4COC4)nc3)c12` (centres unmarked) [Example 147], the IC50 is < 2.5 nM. `COCCC[S+]([O-])c1sc2nc(-c3cncnc3)cc(C(F)(F)F)c2c1N` (centres unmarked) [Example 131]: the IC50 was < 2.5 nM. For `Nc1c([S+]([O-])C2CCC2)sc2nc(-c3cnc(NCC(CO)CO)nc3)cc(-c3ccccc3)c12` (centres unmarked) [Example 193], the IC50 is < 2.5 nM. Turning to `Cn1nccc1-c1cc(-c2cnc3c(c2)CNC3=O)nc2sc([S+]([O-])C3CCC3)c(N)c12` (centres unmarked) [Example 305], the IC50 is < 2.5 nM. Turning to `Nc1c([S+]([O-])C2CCC2)sc2nc(-c3cnc(NCCO)nc3)cc(-c3cncc(F)c3)c12` (centres unmarked) [Example 115], the IC50 is < 2.5 nM.

As for `COCC[S@+]([O-])c1sc2nc(-c3cnc(N)nc3)cc(C3CC3)c2c1N` [Example 151], the IC50 is ≥ 10 nM. For the compound `Nc1c([S@@+]([O-])C2CCC2)sc2nc(-c3cnc(NCCOCCO)nc3)cc(-c3ccccc3)c12` [Example 185], the IC50 is ≥ 10 nM.

Take `Nc1c([S+]([O-])C2CCC2)sc2nc(-c3cccnc3)cc(C3CCOCC3)c12` (centres unmarked) [Example 43]: the IC50 is < 2.5 nM.
